Experimental data reported in EP4635969A1, “NOVEL GLUCOCORTICOID, METHOD FOR PREPARING SAME, AND USE THEREOF” (Tianjin Pharmaceutical Biotechnology Co., Ltd., priority 2022, dated 2024).
Like-named read-outs stand apart in the source and are kept apart here.

Legend:
[1] = tested on: asthma model mice; assay: Anti-asthma pharmacodynamic experiment: airway hyperresponsiveness (Penh) after methacholine challenge; format: in vivo, female BALB/c mice; details: compared with the model group
Method: Pharmacological Example 4: Pharmacodynamic Experiment on Anti-Asthma
The suspensions were stored at room temperature protected from light until use.
Positive control drug: Budesonide Suspension for Inhalation (specification: 2 mL: 1 mg; AstraZeneca Inc.; Lot No. : 327392) was diluted with injection-grade sodium chloride solution to 0.3 mg/ml as the positive control drug, and stored at room temperature protected from light until use.
Sixty female BALB/c mice underwent a one-week adaptive feeding period. Ten mice were randomly selected as the blank control group, while 50 mice were selected to establish asthma models.
From days 21 to 23 after sensitization, the mice in the model group and drug administration group were exposed to a 30-minute aerosol challenge with 5% OVA, while the mice in the blank control group were exposed to normal saline aerosol for the same duration.
Airway responsiveness was measured in all groups of mice after the last challenge. The mice were placed into a plethysmography chamber, and baseline Penh values were recorded. Subsequently, the mice were challenged with aerosolized methacholine at concentrations from low to high of 0, 6.25, and 12.5 mg/mL, with an aerosol volume of 100 µ L each time for 60 s. […] Penh values were then recorded for 3 min and averaged to compare the airway responsiveness of each group of mice.

[2] = target: T1, mineralocorticoid receptor (MR) (Homo sapiens, UniProt P08235); assay: Assay for agonist activity on mineralocorticoid receptor (luciferase reporter, HEK293 cells transfected with pBIND-MR plasmid); format: cell-based; details: for Target selectivity MR/GR: ratio of EC50 values; for target selectivity: MR/GR and PR/GR, same experimental conditions
T1 sequence (P08235 726-984): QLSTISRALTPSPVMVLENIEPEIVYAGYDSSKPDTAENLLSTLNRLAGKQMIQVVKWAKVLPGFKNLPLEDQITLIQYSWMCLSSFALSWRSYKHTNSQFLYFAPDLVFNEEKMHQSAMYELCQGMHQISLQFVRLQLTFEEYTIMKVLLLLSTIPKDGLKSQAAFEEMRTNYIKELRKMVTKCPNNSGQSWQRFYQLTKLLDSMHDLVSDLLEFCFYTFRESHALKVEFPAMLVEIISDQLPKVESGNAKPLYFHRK
Summary of the method: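 HEK293 cells transiently transfected with pBIND-MR or pBIND-PR, seeded in phenol red-free DMEM with 5% charcoal-stripped serum. Compounds tested as 12-point 4-fold dilutions from 50 µM in duplicate, 0.1% DMSO blank. Luciferase luminescence read, EC50 by nonlinear fit.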

[3] = tested on: dry eye syndrome model New Zealand rabbits; assay: Dry eye syndrome experiment (benzalkonium chloride model): tear secretion test with phenol red cotton threads; format: in vivo, male New Zealand White rabbits; details: for tear secretion: compared with the model group
Method: Positive control drug: Fluorometholone Eye Drops (specification: 5 mL/5 mg; Santen Pharmaceutical (CHINA) Co., Ltd.; Lot No.: 1FM6625) was used as the positive control drug and stored at room temperature protected from light until use.
Thirty male New Zealand White rabbits (conventional grade) were prepared. Six rabbits were randomly selected as the blank control group, and the remaining animals were administered 0.1% benzalkonium chloride to the left eye twice daily (morning and evening) , 10 µL/animal each time. On day 6 of modeling, tear secretion was measured using phenol red cotton threads to determine whether the model was successfully established. […] During the administration, all animals except the blank control group were administered 10 µL of 0.1% benzalkonium chloride to the left eye once daily to maintain dry eye symptoms..
• Test time: D3, D7, D15; • Test animals: All animals were tested before grouping; all enrolled surviving animals were tested after administration; • Test method: Tear secretion was measured using phenol red cotton threads. The tear secretion test paper was folded and placed at the middle and outer 1/3 of the rabbit palpebral conjunctival sac for 1 min. The test paper was then removed, observed, and recorded for its wetting length. The test was repeated 3 times, and the values were averaged.
The normality and homogeneity of variance were tested by Levene's test. If there was no statistical significance (P > 0.05), one-way analysis of variance (ANOVA) was used for statistical analysis. If ANOVA was statistically significant (P ≤ 0.05), LSD test (parametric method) was used for comparative analysis. If the variance was heterogeneous (P ≤ 0.05), Kruskal-Wallis test was used. If the Kruskal-Wallis test was statistically significant (P ≤ 0.05), Dunnett's test (nonparametric method) was used for comparative analysis.

[4] = tested on: psoriasis model mice; assay: Psoriasis experiment (imiquimod model): skin lesion (PASI) score; format: in vivo; details: for PASI scores: compared with the model group
Method: Positive control drug: Fluticasone Propionate Cream (specification: 0.05% × 15 g, Zhejiang Xianju Pharmaceutical Co. Ltd., Lot No. 211106), stored at room temperature protected from light until use.
Adult mice were selected, and the skin of 2 cm × 3 cm on the back of mice was locally depilated. The mice in the model group and drug administration group were applied with 62.5 mg of 5% imiquimod cream on their back for modeling, while the mice in the blank control group were applied with medical petroleum jelly on their back daily. The above procedures were performed once a day for 7 consecutive days.
The mice in the drug administration group were applied with the corresponding drugs on their backs daily at a dose of 0.2 g per mouse, while the blank control group and the model group were only applied with 0.2 g of the test sample drug matrix. One hour after drug administration, the drugs were wiped off with sterile cotton swabs, followed by the application of imiquimod. The above procedures were performed once a day for 7 consecutive days.
Referring to the clinical Psoriasis Area and Severity Index (PASI) scoring criteria, erythema, scaling, and thickness at the skin lesion sites were evaluated on a 0-4 scale on day 8 of modeling, and the total score was obtained by summing the three items.
• (1) Erythema: a score of 0 points indicates no erythema, a score of 1 point indicates erythema appearing light red, a score of 2 points indicates erythema appearing red, a score of 3 points indicates erythema appearing dark red, and a score of 4 points indicates erythema appearing extremely deep red; • (2) Scaling: a score of 0 points indicates no scaling on the surface, a score of 1 point indicates partial skin lesions covered with scaling, a score of 2 points indicates most skin lesions covered with scaling, a score of 3 points indicates almost all skin lesions covered with scaling in layers, and a score of 4 points indicates all skin lesions covered with scaling; • (3) Thickness: a score of 0 points indicates skin lesions flush with normal skin, a score of 1 point indicates skin lesions slightly elevated above normal skin surface, a score of 2 points indicates moderate elevation of skin lesions, a score of 3 points indicates thickened skin lesions with obvious elevation, and a score of 4 points indicates highly thickened skin lesions with prominent elevation.
Statistical analysis was performed using SPSS software, and the results were expressed as mean ± standard deviation. One-way ANOVA was used for intergroup comparisons. For data with homogeneous variance, the LSD test was used; for data with heterogeneous variance, the Dunnett-t test was used. A value of P < 0.05 was considered statistically significant.

[5] = tested on: inflammatory cytokines (TNF-α); assay: Anti-uveitis pharmacodynamic experiment (LPS model): inflammatory cytokines in aqueous humor (ELISA); format: in vivo, male SD rats; details: values not given
Method: Pharmacological Example 5. Pharmacodynamic Experiment on Anti-Uveitis
Test samples: Compounds 23 and 26 were prepared as 5 mg/5 mL ophthalmic suspensions with reference to the formulation of Fluorometholone Eye Drops, and stored at room temperature protected from light until use.
Positive control drug: Fluorometholone Eye Drops (specification: 5 mL/5 mg; Santen Pharmaceutical (CHINA) Co., Ltd.; Lot No. : J20180068) was used as the positive control drug and stored at room temperature protected from light until use.
Fifty male SD rats underwent a one-week adaptive feeding period. The animals were randomly divided into 5 groups: Group 1 served as the blank control group, and Groups 2 to 5 were the model group, fluorometholone group, compound 23 group, and compound 26 group, respectively. Groups 2 to 5 were used to establish rat uveitis models by single subcutaneous injection of 1 mg/kg LPS (Salmonella; Sigma; Lot No. 0000164114) into the plantar tissue of the hindpaw. Salmonella endotoxin was dissolved in normal saline to prepare an injection solution at a concentration of 2 mg/mL, which was injected subcutaneously at 1 mg/kg into the plantar tissue of one paw of the rats. Group 1 was injected with an equal volume of normal saline.
After modeling, 40 µL of normal saline was administered to the eyes (bilateral) of the rats in the blank control group and model group, and 40 µL of the corresponding drugs were administered to the eyes (bilateral) of the […] in the compound 23 group, compound 26 group, and positive drug fluorometholone group, 3 times a day for 2 days. Table 8. Animal grouping and drug administration dosages
Thirty hours after modeling, aqueous humor was collected from both eyes of rats, and partial eyeball tissues of rats were collected. The level of the inflammatory cytokines (TNF-α) was detected using a rat ELISA assay kit.
Statistical analysis was performed using SPSS software. Measurement data were expressed as mean ± standard deviation. One-way ANOVA was used for intergroup comparisons. For data with homogeneous variance, LSD test was used; for data with heterogeneous variance, Dunnett-t test was used. A value of P < 0.05 was considered statistically significant.

[6] = tested on: intraocular pressure of guinea pigs; assay: Adverse reactions of continuous ocular administration: intraocular pressure; format: in vivo
Method: Pharmacological Example 9: Experiment on Adverse Reactions of Continuous Ocular Administration in Guinea Pigs
Test samples: Compounds 17 and 23 were prepared as 5 mg/5 mL ophthalmic suspensions with reference to the formulation of Fluorometholone Eye Drops, and stored at room temperature protected from light until use.
Positive control drug: Fluorometholone Eye Drops (specification: 5 mL/5 mg; Santen Pharmaceutical (CHINA) Co., Ltd.; Lot No.: 1FM6545), Loteprednol Etabonate Eye Drops (specification 0.5% (5 mg/mL); Shandong Bausch & Lomb Freda Pharmaceutical Co., Ltd; Lot No. 386521), stored at room temperature protected from light until use.
Animals: 50 guinea pigs, conventional grade, with an equal number of males and females, weighing 300-350 g..
Animal grouping: After 5 days of adaptive feeding, the guinea pigs were randomly divided into 5 groups based on body weight. Group 1 was the blank control group, and 50 µL of normal saline was dropped into the eyes (bilateral) of the guinea pigs. Groups 2 to 5 were the fluorometholone group, loteprednol group, compound 17 group, and compound 23 group, respectively, and the corresponding drugs were dropped into the eyes (bilateral) of the guinea pigs. Table 19. Animal grouping and drug administration dosages for the experiment on adverse reactions of continuous ocular administration in guinea pigs
Intraocular pressure measurement time: The intraocular pressure of animals in each group was measured before administration and on days 7, 14, 21, and 28 post-administration.

[7] = Stability in animal lung tissue homogenate, skin tissue homogenate and aqueous humor; format: in vitro ADME

Row | SMILES | Effects on airway hyperresponsiveness (Penh values) in mice [1] | EC50 [2] [nM] | Target selectivity MR/GR [2] | tear secretion [3] | PASI scores [4] | inflammatory cytokines in aqueous humor [5] | intraocular pressure after continuous ocular administration [6] | stability in animal lung tissue homogenate, skin tissue homogenate, and aqueous humor [7] | EC50 ([2]; EC50 of agonist activity, HEK293 reporter cells, top concentration 50 µM, read-out: Nuclear receptor enzyme activity (nM) MR) [nM] | PASI score ([4]; day 8 of modeling, 0.2 g cream per mouse daily for 7 days (compounds 1 mg/g, fluticasone propionate 0.5 mg/g)) | Intraocular pressure of guinea pigs (mmHg) D0 ([6]; D0, before administration, 50 µL/eye (compounds and fluorometholone 1 mg/mL, loteprednol 5 mg/mL)) [mmHg] | Intraocular pressure of guinea pigs (mmHg) D7 ([6]; D7, 50 µL/eye (compounds and fluorometholone 1 mg/mL, loteprednol 5 mg/mL)) [mmHg] | Intraocular pressure of guinea pigs (mmHg) D14 ([6]; D14, 50 µL/eye (compounds and fluorometholone 1 mg/mL, loteprednol 5 mg/mL)) [mmHg] | Intraocular pressure of guinea pigs (mmHg) D21 ([6]; D21, 50 µL/eye (compounds and fluorometholone 1 mg/mL, loteprednol 5 mg/mL)) [mmHg] | Intraocular pressure of guinea pigs (mmHg) D28 ([6]; D28, 50 µL/eye (compounds and fluorometholone 1 mg/mL, loteprednol 5 mg/mL)) [mmHg] | target selectivity [2] | Wetting length of phenol red cotton threads (mm) D0 ([3]; D0, 1 mg/mL, 50 µL/eye, 3 times a day for 14 days) [mm] | Wetting length of phenol red cotton threads (mm) D3 ([3]; D3, 1 mg/mL, 50 µL/eye, 3 times a day for 14 days) [mm] | Wetting length of phenol red cotton threads (mm) D7 ([3]; D7, 1 mg/mL, 50 µL/eye, 3 times a day for 14 days) [mm] | Wetting length of phenol red cotton threads (mm) D15 ([3]; D15, 1 mg/mL, 50 µL/eye, 3 times a day for 14 days) [mm]
1 | C[C@]12C=CC(=O)C=C1CC[C@H]1[C@@H]3C[C@H]4OC(c5ccc(COC6CCOC6=O)cc5)O[C@@]4(C(=O)CO)[C@@]3(C)C[C@H](O)[C@@]12F (stereo partly drawn) [Compound 16, (6aS,6bR,7S,8aS,8bS,11aR,12aS,12bS)-6b-Fluoro-7-hydroxy-8b-(2-hydroxyacetyl)-6a,8a-dimethyl-10-(4-(((2-oxotetrahydrofuran-3-yl)oxy)methyl)phenyl)-1,2,6a,6b,7,8,8a,8b,11a,12,12a,12b-do decahydro-4H-naphtho[2',1':4,5]indeno[1,2-d][1,3]dioxol-4-one] | significantly decreased the Penh values in mice | > 50000 | > 1.2×10^5 | significantly increased the tear secretion | significantly decreased PASI scores on day 7 | suppressed inflammatory cytokines in aqueous humor | no abnormal intraocular pressure observed | relatively stable |  |  |  |  |  |  |  |  |  |  |  | 
2 | C[C@]12C=CC(=O)C=C1CC[C@H]1[C@@H]3C[C@H]4OC(c5ccc(CSC6CCOC6=O)cc5)O[C@@]4(C(=O)CO)[C@@]3(C)C[C@H](O)[C@@]12F (stereo partly drawn) [Compound 17, (6aS,6bR,7S,8aS,8bS,11aR,12aS,12bS)-6b-Fluoro-7-hydroxy-8b-(2-hydroxyacetyl)-6a,8a-dimethyl-10-(4-(((2-oxotetrahydrofuran-3-yl)thio)methyl)phenyl)-1,2,6a,6b,7,8,8a,8b,11a,12,12a,12b-do decahydro-4H-naphtho[2',1':4,5]indeno[1,2-d][1,3]dioxol-4-one] | significantly decreased the Penh values in mice |  | > 1.7×10^5 | significantly increased the tear secretion | PASI scores significantly decreased on day 7 | suppressed inflammatory cytokines in aqueous humor | no abnormal intraocular pressure was observed | relatively stable | > 50000 | 4.5 ± 0.6 | 13.5 ± 0.6 | 16.0 ± 1.4 | 14.5 ± 1.9 | 13.3 ± 2.5 | 14.3 ± 1.5 |  |  |  |  | 
3 | C[C@]12C=CC(=O)C=C1CC[C@H]1[C@@H]3C[C@H]4OC(c5ccc(CSC6COC(=O)C6)cc5Cl)O[C@@]4(C(=O)CO)[C@@]3(C)C[C@H](O)[C@@]12F (stereo partly drawn) [Compound 20, (6aS,6bR,7S,8aS,8bS,11aR,12aS,12bS)-10-(2-Chloro-4-(((5-oxotetrahydrofuran-3-yl)thio)methyl)phenyl)-6b-fluoro-7-hydroxy-8b-(2-hydroxyacetyl)-6a,8a-dimethyl-1,2,6a,6b,7,8,8a,8b,11a,12,12a, 12b-dodecahydro-4H-naphtho[2',1':4,5]indeno[1,2-d][1,3]dioxol-4-one] | significantly decreased the Penh values in mice |  |  | significantly increased the tear secretion on day 15 | significantly decreased PASI scores on day 7 | suppressed inflammatory cytokines in aqueous humor | no abnormal intraocular pressure observed | relatively stable |  |  |  |  |  |  |  | target selectivity comparable to that of compound 23 | 27.76 ± 6.04 | 23.39 ± 3.93 | 29.78 ± 2.74 | 35.28 ± 3.21
4 | C[C@]12C=CC(=O)C=C1CC[C@H]1[C@@H]3C[C@H]4OC(c5ccc(CNC6COC(=O)C6)cc5)O[C@@]4(C(=O)CO)[C@@]3(C)C[C@H](O)[C@@]12F (stereo partly drawn) [Compound 21, (6aS,6bR,7S,8aS,8bS,11aR,12aS,12bS)-6b-Fluoro-7-hydroxy-8b-(2-hydroxyacetyl)-6a,8a-dimethyl-10-(4-(((5-oxotetrahydrofuran-3-yl)amino)methyl)phenyl)-1,2,6a,6b,7,8,8a,8b,11a,12,12a,12b-dodecahydro-4H-naphtho[2',1':4,5]indeno[1,2-d][1,3]dioxol-4-one] | significantly decreased the Penh values in mice |  |  | significantly increased the tear secretion | significantly decreased PASI scores on day 7 | suppressed inflammatory cytokines in aqueous humor | no abnormal intraocular pressure observed | relatively stable |  |  |  |  |  |  |  | target selectivity comparable to that of compound 23 |  |  |  | 
5 | C[C@]12C=CC(=O)C=C1CC[C@H]1[C@@H]3C[C@H]4OC(c5ccc(COC6CCOC6=O)cc5)O[C@@]4(C(=O)CO)[C@@]3(C)C[C@H](O)[C@@]12Cl (stereo partly drawn) [Compound 22, (6aS,6bR,7S,8aS,8bS,11aR,12aS,12bS)-6b-Chloro-7-hydroxy-8b-(2-hydroxyacetyl)-6a,8a-dimethyl-10-(4-(((2-oxotetrahydrofuran-3-yl)oxy)methyl)phenyl)-1,2,6a,6b,7,8,8a,8b,11a,12,12a,12b-do decahydro-4H-naphtho[2',1':4,5]indeno[1,2-d][1,3]dioxol-4-one] | significantly decreased the Penh values in mice | > 50000 | > 9.1×10^4 | significantly increased the tear secretion | significantly decreased PASI scores on day 7 | suppressed inflammatory cytokines in aqueous humor | no abnormal intraocular pressure observed | relatively stable |  |  |  |  |  |  |  |  |  |  |  | 
